Columns and labels:
Type in all cases: in vivo
[1] = test system: sedge, umbrella (small-flower umbrella sedge, Cyperus difformis); assay: Test B flooded paddy test; conditions: Cyperus difformis, Flood, 250 g ai/ha; scale of 0 to 100 where 0 is no effect and 100 is complete control; read-out: Sedge, Umbrella plant response rating
In short: (§1)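 Percent control, visually estimated after 13–15 d in the greenhouse on a 0–100 basis, compares treated pots with untreated ones; compound was put into paddy water 3 cm above the soil when plants had two leaves.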

rice (Oryra sativa) = assay: Test B flooded paddy test; conditions: Oryza sativa, Flood, 250 g ai/ha; scale of 0 to 100 where 0 is no effect and 100 is complete control; read-out: Rice plant response rating
In short: as §1

[2] = test system: barnyardgrass (Echinochloa crus-galli); assay: Test B flooded paddy test; conditions: Echinochloa crus-galli, Flood, 250 g ai/ha; scale of 0 to 100 where 0 is no effect and 100 is complete control; read-out: Barnyardgrass plant response rating
In short: as §1

[3] = test system: ducksalad (Heteranthera limosa); assay: Test B flooded paddy test; conditions: Heteranthera limosa, Flood, 250 g ai/ha; scale of 0 to 100 where 0 is no effect and 100 is complete control; read-out: Ducksalad plant response rating
In short: as §1

[4] = test system: ragweed (common ragweed, Ambrosia elatior); assay: Test A preemergence; conditions: Ambrosia artemisiifolia, pre-emergence, 240 h; for pest or weed control at 125 g/ha: 125 g ai/ha, Preemergence, visual injury rating after approximately 10 d, read-out: Ragweed plant response rating (0 to 100 scale, 0 is no effect, 100 is complete control); for pest or weed control at 500 g/ha: 500 g ai/ha, preemergence, visual injury rating about 10 d after treatment, 0 to 100 scale (0 no effect, 100 complete control), read-out: Ragweed plant response rating
In short: (§2)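 Ratings of 0 (no effect) to 100 (complete control) come from visual comparison with untreated controls roughly 10 d after treatment. Test chemicals, formulated in a non-phytotoxic solvent mixture with surfactant, were applied either as a preemergence directed soil spray on seeded soil or postemergence to one- to two-leaf plants 2 to 10 cm tall.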

[5] = test system: barnyardgrass (Echinochloa crus-galli); assay: Test A preemergence; conditions: Echinochloa crus-galli, pre-emergence, 240 h; for pest or weed control at 125 g/ha: 125 g ai/ha, Preemergence, visual injury rating after approximately 10 d, read-out: Barnyardgrass plant response rating (0 to 100 scale, 0 is no effect, 100 is complete control); for pest or weed control at 500 g/ha: 500 g ai/ha, preemergence, visual injury rating about 10 d after treatment, 0 to 100 scale (0 no effect, 100 complete control), read-out: Barnyardgrass plant response rating
In short: as §2

Kochia (Kochia scoparia) [6] = assay: Test A preemergence; conditions: Bassia scoparia, pre-emergence, 240 h; for pest or weed control at 125 g/ha: 125 g ai/ha, Preemergence, visual injury rating after approximately 10 d, read-out: Kochia plant response rating (0 to 100 scale, 0 is no effect, 100 is complete control); for pest or weed control at 500 g/ha: 500 g ai/ha, preemergence, visual injury rating about 10 d after treatment, 0 to 100 scale (0 no effect, 100 complete control), read-out: Kochia plant response rating
In short: as §2

[7] = test system: ryegrass, Italian (Italian ryegrass, Lolium multiflorum); assay: Test A preemergence; conditions: Lolium multiflorum, pre-emergence, 240 h; for pest or weed control at 125 g/ha: 125 g ai/ha, Preemergence, visual injury rating after approximately 10 d, read-out: Ryegrass, Italian plant response rating (0 to 100 scale, 0 is no effect, 100 is complete control); for pest or weed control at 500 g/ha: 500 g ai/ha, preemergence, visual injury rating about 10 d after treatment, 0 to 100 scale (0 no effect, 100 complete control), read-out: Ryegrass, Italian plant response rating
In short: as §2

[8] = test system: pigweed (Amaranthus retroflexus); assay: Test A preemergence; conditions: Amaranthus retroflexus, pre-emergence, 240 h; for pest or weed control at 125 g/ha: 125 g ai/ha, Preemergence, visual injury rating after approximately 10 d, read-out: Pigweed plant response rating (0 to 100 scale, 0 is no effect, 100 is complete control); for pest or weed control at 500 g/ha: 500 g ai/ha, preemergence, visual injury rating about 10 d after treatment, 0 to 100 scale (0 no effect, 100 complete control), read-out: Pigweed plant response rating
[9] = test system: giant foxtail (Setaria faberii); assay: Test A preemergence; conditions: Setaria faberi, pre-emergence, 240 h; for pest or weed control at 125 g/ha: 125 g ai/ha, Preemergence, visual injury rating after approximately 10 d, read-out: Foxtail, Giant plant response rating (0 to 100 scale, 0 is no effect, 100 is complete control); for pest or weed control at 500 g/ha: 500 g ai/ha, preemergence, visual injury rating about 10 d after treatment, 0 to 100 scale (0 no effect, 100 complete control), read-out: Foxtail, Giant plant response rating
In short: as §2

[10] = test system: ragweed (common ragweed, Ambrosia elatior); assay: Test A postemergence; conditions: Ambrosia artemisiifolia, post-emergence, 240 h, 125 g ai/ha, Postemergence; visual injury after approximately 10 d; 0 to 100 scale where 0 is no effect and 100 is complete control; read-out: Plant response rating, Ragweed
In short: as §2

[11] = test system: barnyardgrass (Echinochloa crus-galli); assay: Test A postemergence; conditions: Echinochloa crus-galli, post-emergence, 240 h, 125 g ai/ha, Postemergence; visual injury after approximately 10 d; 0 to 100 scale where 0 is no effect and 100 is complete control; read-out: Plant response rating, Barnyardgrass
In short: as §2

corn (Zea mays) = assay: Test A postemergence; conditions: Zea mays, post-emergence, 240 h, 125 g ai/ha, Postemergence; visual injury after approximately 10 d; 0 to 100 scale where 0 is no effect and 100 is complete control
In short: as §2

Kochia (Kochia scoparia) [12] = assay: Test A postemergence; conditions: Bassia scoparia, post-emergence, 240 h, 125 g ai/ha, Postemergence; visual injury after approximately 10 d; 0 to 100 scale where 0 is no effect and 100 is complete control; read-out: Plant response rating, Kochia
In short: as §2

[13] = test system: ryegrass, Italian (Italian ryegrass, Lolium multiflorum); assay: Test A postemergence; conditions: Lolium multiflorum, post-emergence, 240 h, 125 g ai/ha, Postemergence; visual injury after approximately 10 d; 0 to 100 scale where 0 is no effect and 100 is complete control; read-out: Plant response rating, Ryegrass, Italian
In short: as §2

[14] = test system: pigweed (Amaranthus retroflexus); assay: Test A postemergence; conditions: Amaranthus retroflexus, post-emergence, 240 h, 125 g ai/ha, Postemergence; visual injury after approximately 10 d; 0 to 100 scale where 0 is no effect and 100 is complete control; read-out: Plant response rating, Pigweed
In short: as §2

[15] = test system: giant foxtail (Setaria faberii); assay: Test A postemergence; conditions: Setaria faberi, post-emergence, 240 h, 125 g ai/ha, Postemergence; visual injury after approximately 10 d; 0 to 100 scale where 0 is no effect and 100 is complete control; read-out: Plant response rating, Foxtail, Giant
In short: as §2

[16] = test system: Galium (catchweed bedstraw, Galium aparine); assay: Test A postemergence; conditions: Galium, post-emergence, 240 h, 125 g ai/ha, Postemergence; visual injury after approximately 10 d; 0 to 100 scale where 0 is no effect and 100 is complete control; read-out: Plant response rating, Galium
In short: as §2

[17] = test system: blackgrass (Alopecurus myosuroides); assay: Test A postemergence; conditions: Alopecurus myosuroides, post-emergence, 240 h, 125 g ai/ha, Postemergence; visual injury after approximately 10 d; 0 to 100 scale where 0 is no effect and 100 is complete control; read-out: Plant response rating, Blackgrass
In short: as §2

[18] = test system: wheat (Triticum aestivum); assay: Test A postemergence; conditions: Triticum aestivum, post-emergence, 240 h, 125 g ai/ha, Postemergence; visual injury after approximately 10 d; 0 to 100 scale where 0 is no effect and 100 is complete control; read-out: Plant response rating, Wheat
In short: as §2

SMILES | pest or weed control at 250 g/ha [1] [%] | pest or weed control at 250 g/ha (rice (Oryra sativa)) [%] | pest or weed control at 250 g/ha [2] [%] | pest or weed control at 250 g/ha [3] [%] | pest or weed control at 125 g/ha [4] [%] | pest or weed control at 500 g/ha [4] [%] | pest or weed control at 125 g/ha [5] [%] | pest or weed control at 500 g/ha [5] [%] | pest or weed control at 125 g/ha (Kochia (Kochia scoparia) [6]) [%] | pest or weed control at 500 g/ha (Kochia (Kochia scoparia) [6]) [%] | pest or weed control at 125 g/ha [7] [%] | pest or weed control at 500 g/ha [7] [%] | pest or weed control at 125 g/ha [8] [%] | pest or weed control at 500 g/ha [8] [%] | pest or weed control at 125 g/ha [9] [%] | pest or weed control at 500 g/ha [9] [%] | pest or weed control at 125 g/ha [10] [%] | pest or weed control at 125 g/ha [11] [%] | Corn plant response rating (crop injury, 0 = no effect, 100 = complete kill) at 125 g/ha (corn (Zea mays)) [%] | pest or weed control at 125 g/ha (Kochia (Kochia scoparia) [12]) [%] | also measured
CCOc1cccc([C@H]2CNC(=O)[C@@H]2C(=O)Nc2ccc(F)cc2F)c1 [Compound 951] | 0 | 0 | 30 | 90 | 0 | 0 | 90 | 90 | 0 | 20 | 0 | 0 | 0 | 0 | 70 | 70 | 0 | 70 | 0 | 0 | pest or weed control at 125 g/ha [13]: 0%; pest or weed control at 125 g/ha [14]: 0%; pest or weed control at 125 g/ha [15]: 0%; pest or weed control at 125 g/ha [16]: 0%; pest or weed control at 125 g/ha [17]: 0%; plant injury at 125 g/ha [18]: 0%
O=C(Nc1ccccc1F)[C@H]1C(=S)NC[C@@H]1c1ccc(Cl)cc1 (racemic) [Compound 947] | 0 | 0 | 0 | 65 | 0 | 0 | 30 | 60 | 0 | 40 | 0 | 0 | 0 | 0 | 50 | 80 | 0 | 20 | 0 | 0 | pest or weed control at 125 g/ha [13]: 0%; pest or weed control at 125 g/ha [14]: 0%; pest or weed control at 125 g/ha [15]: 30%; pest or weed control at 125 g/ha [16]: 0%; pest or weed control at 125 g/ha [17]: 0%; plant injury at 125 g/ha [18]: 0%

Reference: patent US12077503B2, “Substituted cyclic amides and their use as herbicides” (FMC CORPORATION, priority 2015, dated 2024)
